Results reported in patent publication US20240043427A1 (Gilead Sciences, Inc., priority 2020, published 2024).

How the values were obtained:
CD73 [1] = target: T1, CD73 (Homo sapiens (Human), UniProt P21589); assay type: biochemical; details: 1 mM NaH2PO4 in enzyme buffer, CD73 0.3 nM, AMP 15 uM
CD73 [2] = target: T1, CD73; assay: MDA-MB-231 Cell Based CD73 Activity Assay (DMEM); details: MDA-MB-231-GFP cells, DMEM medium with 10% human plasma, 200 uM AMP

T1 sequence (P21589 27-574): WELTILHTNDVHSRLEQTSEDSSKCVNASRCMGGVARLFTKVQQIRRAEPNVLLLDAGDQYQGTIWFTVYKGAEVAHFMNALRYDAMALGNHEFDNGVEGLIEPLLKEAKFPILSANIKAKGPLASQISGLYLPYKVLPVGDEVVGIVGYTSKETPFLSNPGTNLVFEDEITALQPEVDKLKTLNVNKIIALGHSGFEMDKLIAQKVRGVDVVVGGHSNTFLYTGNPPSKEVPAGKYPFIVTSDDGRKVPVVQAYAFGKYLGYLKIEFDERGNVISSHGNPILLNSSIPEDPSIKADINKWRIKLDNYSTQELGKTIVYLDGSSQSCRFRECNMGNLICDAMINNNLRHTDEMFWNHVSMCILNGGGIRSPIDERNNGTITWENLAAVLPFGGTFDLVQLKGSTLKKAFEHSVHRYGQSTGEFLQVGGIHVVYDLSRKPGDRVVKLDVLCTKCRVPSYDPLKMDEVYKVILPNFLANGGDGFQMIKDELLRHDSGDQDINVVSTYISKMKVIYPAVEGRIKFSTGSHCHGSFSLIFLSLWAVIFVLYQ

| IC50 (CD73 [1]) [nM] | EC50 (CD73 [2]) [nM] | Compound |
| --- | --- | --- |
| 5.61 | 10.1 | O=C(OCc1ccccc1)N1CC2(C1)CN(c1cc(-c3c[nH]c(=O)[nH]c3=O)nn3ccnc13)CC2(F)F [Example 505, benzyl 6-(6-(2,4-dioxo-1,2,3,4-tetrahydropyrimidin-5-yl)imidazo[1,2-b]pyridazin-8-yl)-8,8-difluoro-2,6-diazaspiro[3.4]octane-2-carboxylate] |
| 8.82 | 8.67 | O=C(OCC(F)(F)F)N1CC2(C1)CN(c1cc(-c3c[nH]c(=O)[nH]c3=O)nn3ccnc13)CC2(F)F [Example 506, 2,2,2-trifluoroethyl 6-(6-(2,4-dioxo-1,2,3,4-tetrahydropyrimidin-5-yl)imidazo[1,2-b]pyridazin-8-yl)-8,8-difluoro-2,6-diazaspiro[3.4]octane-2-carboxylate] |
| 9.83 | 19.7 | O=c1[nH]cc(-c2cc(N3CC(F)(F)C4(CN(CC(F)F)C4)C3)c3nccn3n2)c(=O)[nH]1 [Example 507, 5-(8-(2-(2,2-difluoroethyl)-8,8-difluoro-2,6-diazaspiro[3.4]octan-6-yl)imidazo[1,2-b]pyridazin-6-yl)pyrimidine-2,4(1H,3H)-dione] |
| 15 | 29 | O=c1[nH]cc(-c2cc(N3CC(F)(F)C4(CN(CC(F)(F)F)C4)C3)c3nccn3n2)c(=O)[nH]1 [Example 508, 5-(8-(8,8-difluoro-2-(2,2,2-trifluoroethyl)-2,6-diazaspiro[3.4]octan-6-yl)imidazo[1,2-b]pyridazin-6-yl)pyrimidine-2,4(1H,3H)-dione] |
| 49.5 | 90.1 | O=c1[nH]cc(-c2cc(-c3cnn(C(F)F)c3)c3nccn3n2)c(=O)[nH]1 [Example 509, 5-(8-(1-(difluoromethyl)-1H-pyrazol-4-yl)imidazo[1,2-b]pyridazin-6-yl)pyrimidine-2,4(1H,3H)-dione] |
| 246 | 382 | COCCn1cc(-c2cc(-c3c[nH]c(=O)[nH]c3=O)nn3ccnc23)cn1 [Example 510, 5-(8-(1-(2-methoxyethyl)-1H-pyrazol-4-yl)imidazo[1,2-b]pyridazin-6-yl)pyrimidine-2,4(1H,3H)-dione] |
| > 250 | 431 | O=c1[nH]cc(-c2cc(-c3cnn(CCN4CCOCC4)c3)c3nccn3n2)c(=O)[nH]1 [Example 511, 5-(8-(1-(2-morpholinoethyl)-1H-pyrazol-4-yl)imidazo[1,2-b]pyridazin-6-yl)pyrimidine-2,4(1H,3H)-dione] |
| > 250 | 1140 | Cn1ccc(-c2cc(-c3c[nH]c(=O)[nH]c3=O)nn3ccnc23)n1 [Example 512, 5-(8-(1-methyl-1H-pyrazol-3-yl)imidazo[1,2-b]pyridazin-6-yl)pyrimidine-2,4(1H,3H)-dione] |
| > 250 | 934 | CC1(C)CC(=O)N(c2cc(-c3c[nH]c(=O)[nH]c3=O)nn3ccnc23)C1 [Example 513, 5-(8-(4,4-dimethyl-2-oxopyrrolidin-1-yl)imidazo[1,2-b]pyridazin-6-yl)pyrimidine-2,4(1H,3H)-dione] |
| 212 | 269 | CC1(C)CN(c2cc(-c3c[nH]c(=O)[nH]c3=O)nn3ccnc23)C(=O)O1 [Example 514, 5-(8-(5,5-dimethyl-2-oxooxazolidin-3-yl)imidazo[1,2-b]pyridazin-6-yl)pyrimidine-2,4(1H,3H)-dione] |
| 3.17 | 12.8 | C[C@H]1CN(c2cc(-c3c[nH]c(=O)[nH]c3=O)nn3ccnc23)CC1(F)F [Example 516, (S)-5-(8-(3,3-difluoro-4-methylpyrrolidin-1-yl)imidazo[1,2-b]pyridazin-6-yl)pyrimidine-2,4(1H,3H)-dione] |
| 5.23 | 21.4 | C[C@@H]1CN(c2cc(-c3c[nH]c(=O)[nH]c3=O)nn3ccnc23)CC1(F)F [Example 517, (R)-5-(8-(3,3-difluoro-4-methylpyrrolidin-1-yl)imidazo[1,2-b]pyridazin-6-yl)pyrimidine-2,4(1H,3H)-dione] |
| 5.5 | 19.6 | C[C@H]1CN(c2cc(-c3c[nH]c(=O)[nH]c3=O)nn3c(F)cnc23)CC1(F)F [Example 518, (S)-5-(8-(3,3-difluoro-4-methylpyrrolidin-1-yl)-3-fluoroimidazo[1,2-b]pyridazin-6-yl)pyrimidine-2,4(1H,3H)-dione] |
| 6.58 | 18.3 | C[C@@H]1CN(c2cc(-c3c[nH]c(=O)[nH]c3=O)nn3c(F)cnc23)CC1(F)F [Example 519, (R)-5-(8-(3,3-difluoro-4-methylpyrrolidin-1-yl)-3-fluoroimidazo[1,2-b]pyridazin-6-yl)pyrimidine-2,4(1H,3H)-dione] |
| 43.8 | 421 | C[C@H]1CN(c2cc(-c3c[nH]c(=O)[nH]c3=O)nn3c(Cl)cnc23)CC1(F)F [Example 520, (S)-5-(3-chloro-8-(3,3-difluoro-4-methylpyrrolidin-1-yl)imidazo[1,2-b]pyridazin-6-yl)pyrimidine-2,4(1H,3H)-dione] |
| 33.3 | 223 | C[C@@H]1CN(c2cc(-c3c[nH]c(=O)[nH]c3=O)nn3c(Cl)cnc23)CC1(F)F [Example 521, (R)-5-(3-chloro-8-(3,3-difluoro-4-methylpyrrolidin-1-yl)imidazo[1,2-b]pyridazin-6-yl)pyrimidine-2,4(1H,3H)-dione] |
| 3.75 | 11 | O=c1[nH]cc(-c2cc(N3CC(OCC(F)F)C(F)(F)C3)c3nccn3n2)c(=O)[nH]1 (stereo not shown) [Example 524, 5-(8-(4-(2,2-difluoroethoxy)-3,3-difluoropyrrolidin-1-yl)imidazo[1,2-b]pyridazin-6-yl)pyrimidine-2,4(1H,3H)-dione] |
| 1.54 | 4.43 | CCOC(=O)OC1CN(c2cc(-c3c[nH]c(=O)[nH]c3=O)nn3ccnc23)CC1(F)F (stereo not shown) [Example 525, 1-(6-(2,4-dioxo-1,2,3,4-tetrahydropyrimidin-5-yl)imidazo[1,2-b]pyridazin-8-yl)-4,4-difluoropyrrolidin-3-yl ethyl carbonate] |
| 1.32 | 1.13 | CCNC(=O)OC1CN(c2cc(-c3c[nH]c(=O)[nH]c3=O)nn3ccnc23)CC1(F)F (stereo not shown) [Example 526, 1-(6-(2,4-dioxo-1,2,3,4-tetrahydropyrimidin-5-yl)imidazo[1,2-b]pyridazin-8-yl)-4,4-difluoropyrrolidin-3-yl ethylcarbamate] |
| 0.7 | 2.25 | O=c1[nH]cc(-c2cc(N3C[C@H](Oc4ccc(C(F)(F)F)cn4)C(F)(F)C3)c3nccn3n2)c(=O)[nH]1 [Example 529, (S)-5-(8-(3,3-difluoro-4-((5-(trifluoromethyl)pyridin-2-yl)oxy)pyrrolidin-1-yl)imidazo[1,2-b]pyridazin-6-yl)pyrimidine-2,4(1H,3H)-dione] |
| 12.4 | 50.8 | O=c1[nH]cc(-c2cc(N3C[C@@H](Oc4ccc(C(F)(F)F)cn4)C(F)(F)C3)c3nccn3n2)c(=O)[nH]1 [Example 530, (R)-5-(8-(3,3-difluoro-4-((5-(trifluoromethyl)pyridin-2-yl)oxy)pyrrolidin-1-yl)imidazo[1,2-b]pyridazin-6-yl)pyrimidine-2,4(1H,3H)-dione] |
| 1.34 | 11.4 | O=c1[nH]cc(-c2cc(N3C[C@H](Oc4ncc(C(F)(F)F)cn4)C(F)(F)C3)c3nccn3n2)c(=O)[nH]1 [Example 531, (S)-5-(8-(3,3-difluoro-4-((5-(trifluoromethyl)pyrimidin-2-yl)oxy)pyrrolidin-1-yl)imidazo[1,2-b]pyridazin-6-yl)pyrimidine-2,4(1H,3H)-dione] |
| 4.42 | 21.5 | O=c1[nH]cc(-c2cc(N3C[C@@H](Oc4ncc(C(F)(F)F)cn4)C(F)(F)C3)c3nccn3n2)c(=O)[nH]1 [Example 532, (R)-5-(8-(3,3-difluoro-4-((5-(trifluoromethyl)pyrimidin-2-yl)oxy)pyrrolidin-1-yl)imidazo[1,2-b]pyridazin-6-yl)pyrimidine-2,4(1H,3H)-dione] |
| 0.78 | 0.17 | CC(C)NC(=O)O[C@H]1CN(c2cc(-c3c[nH]c(=O)[nH]c3=O)nn3ccnc23)CC1(F)F [Example 533, (S)-1-(6-(2,4-dioxo-1,2,3,4-tetrahydropyrimidin-5-yl)imidazo[1,2-b]pyridazin-8-yl)-4,4-difluoropyrrolidin-3-yl isopropylcarbamate] |
| 9.8 | 5.18 | CC(C)NC(=O)O[C@@H]1CN(c2cc(-c3c[nH]c(=O)[nH]c3=O)nn3ccnc23)CC1(F)F [Example 534, (R)-1-(6-(2,4-dioxo-1,2,3,4-tetrahydropyrimidin-5-yl)imidazo[1,2-b]pyridazin-8-yl)-4,4-difluoropyrrolidin-3-yl isopropylcarbamate] |
| 1.63 | 0.71 | O=C(NCC(F)(F)F)OC1CN(c2cc(-c3c[nH]c(=O)[nH]c3=O)nn3ccnc23)CC1(F)F (stereo not shown) [Example 535, 1-(6-(2,4-dioxo-1,2,3,4-tetrahydropyrimidin-5-yl)imidazo[1,2-b]pyridazin-8-yl)-4,4-difluoropyrrolidin-3-yl (2,2,2-trifluoroethyl)carbamate] |

| Compound | IC50 (CD73 [1]) [nM] | EC50 (CD73 [2]) [nM] |
| --- | --- | --- |
| CC1(C)CN(c2cc(-c3c[nH]c(=O)[nH]c3=O)nn3c(Cl)c(Cl)nc23)CC1(F)F [Example 515, 5-(2,3-dichloro-8-(3,3-difluoro-4,4-dimethylpyrrolidin1-yl)imidazo[1,2-b]pyridazin-6-yl)pyrimidine-2,4(1H,3H)-dione] | 1.72 | 228 |
| CC1(C)CN(c2cc(-c3c[nH]c(=O)[nH]c3=O)nn3c(Cl)cnc23)CC1(F)F [Example 522, 5-(3-chloro-8-(3,3-difluoro-4,4-dimethylpyrrolidin-1-yl)imidazo[1,2-b]pyridazin-6-yl)pyrimidine-2,4(1H,3H)-dione] | 1.26 | 23.6 |
| O=c1[nH]cc(-c2cc(N3CC(Oc4ccc(C(F)(F)F)cn4)C(F)(F)C3)c3nccn3n2)c(=O)[nH]1 (stereo not shown) [Example 523, 5-(8-(3,3-difluoro-4-((5-(trifluoromethyl)pyridin-2-yl)oxy)pyrrolidin-1-yl)imidazo[1,2-b]pyridazin-6-yl)pyrimidine-2,4(1H,3H)-dione] | 1.92 | 3.96 |
